In patent US20250276964A1 (Novartis AG, priority 2021, published 2025):

Target: T1, WIZ (Homo sapiens, UniProt O95785+Q96SW2)
T1 construct: expressed in transfected cells
Test: Quantification of WIZ protein levels in HiBit tag fusion protein assay (WIZ HiBit assay in 293T cells)
Format: cell-based
Conditions: for Dmax at 25 µM / remaining activity at 25 µM: HEK-293T; for Dmax at 25 µM: read-out: % degradation of WIZ (100-Amax); for remaining activity at 25 µM: read-out: WIZ Amax; for DC50: WIZ HiBit assay in 293T cells, 10-point, 5-fold dilution, highest concentration 25 μM, about 18 hours, read-out: WIZ AC50
How it was run: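 293T cells stably carrying single-copy HiBit-WIZ (HSVTK promoter) treated ~18 h at 37 °C with 10-point, 5-fold dilutions, top 25 μM. Lytic HiBit luminescence read; Amax is DMSO-normalised, curve-fitted % WIZ-HiBit remaining at 25 uM.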

[1] = DMSO-normalized, curve-fitted percentage of WIZ-HiBit remaining at 25 uM

T1 sequence (O95785 whole entry): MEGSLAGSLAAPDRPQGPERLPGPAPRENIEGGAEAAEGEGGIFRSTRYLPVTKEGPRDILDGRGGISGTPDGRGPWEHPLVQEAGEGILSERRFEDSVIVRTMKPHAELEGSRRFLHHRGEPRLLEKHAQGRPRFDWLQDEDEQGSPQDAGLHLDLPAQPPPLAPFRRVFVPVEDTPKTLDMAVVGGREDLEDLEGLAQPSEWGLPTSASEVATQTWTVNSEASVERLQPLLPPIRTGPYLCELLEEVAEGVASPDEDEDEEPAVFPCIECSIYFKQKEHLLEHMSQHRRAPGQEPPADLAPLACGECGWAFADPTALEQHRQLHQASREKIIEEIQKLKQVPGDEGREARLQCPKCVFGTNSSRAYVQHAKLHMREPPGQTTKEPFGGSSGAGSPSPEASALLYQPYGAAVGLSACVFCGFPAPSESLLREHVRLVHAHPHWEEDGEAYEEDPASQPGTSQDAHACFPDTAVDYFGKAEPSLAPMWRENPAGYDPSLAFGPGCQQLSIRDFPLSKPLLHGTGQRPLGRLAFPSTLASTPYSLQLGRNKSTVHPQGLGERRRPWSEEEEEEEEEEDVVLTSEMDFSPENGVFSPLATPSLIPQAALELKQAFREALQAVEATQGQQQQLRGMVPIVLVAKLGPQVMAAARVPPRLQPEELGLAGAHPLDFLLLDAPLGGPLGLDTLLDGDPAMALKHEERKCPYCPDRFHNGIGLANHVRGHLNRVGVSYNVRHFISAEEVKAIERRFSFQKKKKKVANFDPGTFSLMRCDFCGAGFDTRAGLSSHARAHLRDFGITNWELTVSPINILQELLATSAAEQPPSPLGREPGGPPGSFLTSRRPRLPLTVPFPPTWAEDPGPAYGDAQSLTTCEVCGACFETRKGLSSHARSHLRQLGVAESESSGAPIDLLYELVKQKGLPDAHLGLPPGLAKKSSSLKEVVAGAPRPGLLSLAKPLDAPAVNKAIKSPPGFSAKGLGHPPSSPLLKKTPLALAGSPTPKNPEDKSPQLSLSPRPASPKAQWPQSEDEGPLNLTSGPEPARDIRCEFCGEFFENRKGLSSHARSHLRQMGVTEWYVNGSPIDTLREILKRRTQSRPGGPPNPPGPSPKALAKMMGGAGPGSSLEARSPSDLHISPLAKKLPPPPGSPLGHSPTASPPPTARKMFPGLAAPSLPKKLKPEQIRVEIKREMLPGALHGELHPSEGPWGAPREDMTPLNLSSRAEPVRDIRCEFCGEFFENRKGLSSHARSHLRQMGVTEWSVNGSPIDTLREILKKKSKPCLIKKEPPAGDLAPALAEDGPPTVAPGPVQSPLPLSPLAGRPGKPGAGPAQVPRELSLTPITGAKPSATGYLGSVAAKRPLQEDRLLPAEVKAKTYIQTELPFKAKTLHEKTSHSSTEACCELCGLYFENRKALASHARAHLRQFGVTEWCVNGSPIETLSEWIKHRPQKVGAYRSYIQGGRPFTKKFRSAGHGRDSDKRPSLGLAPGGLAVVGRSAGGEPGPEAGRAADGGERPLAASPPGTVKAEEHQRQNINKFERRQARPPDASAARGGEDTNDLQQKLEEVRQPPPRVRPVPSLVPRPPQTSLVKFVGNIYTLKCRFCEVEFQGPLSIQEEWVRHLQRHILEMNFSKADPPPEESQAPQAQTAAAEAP
T1 sequence (Q96SW2 whole entry): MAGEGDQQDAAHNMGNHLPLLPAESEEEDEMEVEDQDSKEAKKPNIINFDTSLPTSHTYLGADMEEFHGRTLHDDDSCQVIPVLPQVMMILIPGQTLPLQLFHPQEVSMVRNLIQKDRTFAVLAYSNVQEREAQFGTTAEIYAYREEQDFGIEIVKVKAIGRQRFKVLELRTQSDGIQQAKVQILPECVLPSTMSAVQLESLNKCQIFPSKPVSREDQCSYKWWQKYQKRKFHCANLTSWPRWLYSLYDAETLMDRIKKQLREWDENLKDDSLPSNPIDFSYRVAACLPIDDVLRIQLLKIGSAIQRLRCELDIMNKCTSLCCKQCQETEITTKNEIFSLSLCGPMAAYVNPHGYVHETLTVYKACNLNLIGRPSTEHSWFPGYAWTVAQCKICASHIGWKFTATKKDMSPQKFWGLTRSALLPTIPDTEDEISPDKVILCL
T1 sequence (Q16531 whole entry partner): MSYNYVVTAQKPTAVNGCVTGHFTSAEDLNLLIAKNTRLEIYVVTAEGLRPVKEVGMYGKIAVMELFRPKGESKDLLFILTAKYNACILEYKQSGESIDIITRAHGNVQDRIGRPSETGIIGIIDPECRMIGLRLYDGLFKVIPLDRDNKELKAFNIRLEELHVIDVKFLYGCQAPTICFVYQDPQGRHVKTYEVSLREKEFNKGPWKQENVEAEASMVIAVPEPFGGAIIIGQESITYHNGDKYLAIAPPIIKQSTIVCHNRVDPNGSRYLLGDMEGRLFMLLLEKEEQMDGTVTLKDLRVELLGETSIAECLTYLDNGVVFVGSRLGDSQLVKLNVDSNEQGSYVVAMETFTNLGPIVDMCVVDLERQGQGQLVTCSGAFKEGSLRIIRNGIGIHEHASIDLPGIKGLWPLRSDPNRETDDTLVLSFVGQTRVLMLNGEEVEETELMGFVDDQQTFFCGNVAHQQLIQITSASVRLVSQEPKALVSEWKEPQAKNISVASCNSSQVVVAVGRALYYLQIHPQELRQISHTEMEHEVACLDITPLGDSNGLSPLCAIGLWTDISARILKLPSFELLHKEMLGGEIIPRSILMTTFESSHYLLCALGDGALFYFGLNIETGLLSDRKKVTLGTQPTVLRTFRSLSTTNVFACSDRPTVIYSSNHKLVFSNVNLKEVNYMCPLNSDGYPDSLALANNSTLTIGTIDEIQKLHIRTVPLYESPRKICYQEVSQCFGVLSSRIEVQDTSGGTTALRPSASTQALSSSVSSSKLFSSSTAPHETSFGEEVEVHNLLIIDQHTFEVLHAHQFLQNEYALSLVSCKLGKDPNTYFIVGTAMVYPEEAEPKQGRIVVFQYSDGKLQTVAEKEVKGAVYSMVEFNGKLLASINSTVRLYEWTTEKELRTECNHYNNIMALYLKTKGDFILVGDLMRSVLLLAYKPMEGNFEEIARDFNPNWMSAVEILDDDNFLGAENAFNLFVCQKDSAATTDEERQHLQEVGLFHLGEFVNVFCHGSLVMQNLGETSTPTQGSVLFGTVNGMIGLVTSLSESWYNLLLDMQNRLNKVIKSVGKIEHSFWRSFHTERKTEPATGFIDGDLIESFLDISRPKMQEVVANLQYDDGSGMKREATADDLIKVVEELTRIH

Row | Dmax at 25 µM (100 minus Amax at 25 uM) [%] | remaining activity at 25 µM [1] [%] | DC50 [nM] | % degradation of WIZ (100-Amax) (100 minus Amax at 25 uM) [%] | WIZ Amax [1] [%] | Compound
1 | 78 | 22 | 53 |  |  | O=C1CCN(c2noc3ccc(CN4CCN(CC5CCOCC5)[C@@H](C(F)F)C4)cc23)C(=O)N1 [Example 115, (R)-1-(5-((3-(difluoromethyl)-4-((tetrahydro-2H-pyran-4-yl)methyl)piperazin-1-yl)methyl)benzo[d]isoxazol-3-yl)dihydropyrimidine-2,4(1H,3H)-dione]
2 | 89 | 11 | 37 |  |  | CC(C)CN1CCN(Cc2ccc3onc(N4CCC(=O)NC4=O)c3c2)CC1 [Example 24, 1-(5-((4-isobutylpiperazin-1-yl)methyl)benzo[d]isoxazol-3-yl)dihydropyrimidine-2,4(1H,3H)-dione]
3 | 75 | 25 | 229 |  |  | CC(=O)N1CCN(Cc2ccc3onc(N4CCC(=O)NC4=O)c3c2)[C@H](C)C1 [Example 64, (R)-1-(5-((4-acetyl-2-methylpiperazin-1-yl)methyl)benzo[d]isoxazol-3-yl)dihydropyrimidine-2,4(1H,3H)-dione]
4 | 90 | 10 | 5.4 |  |  | C[C@H]1CN(Cc2ccc3onc(N4CCC(=O)NC4=O)c3c2)CCN1CC1CCCCC1 [Example 28, (S)-1-(5-((4-(cyclohexylmethyl)-3-methylpiperazin-1-yl)methyl)benzo[d]isoxazol-3-yl)dihydropyrimidine-2,4(1H,3H)-dione]
5 | 91 | 9 | 99 |  |  | CC(C)CN1CCN(Cc2ccc3onc(N4CCC(=O)NC4=O)c3c2)[C@@H](C)C1 [Example 32, (S)-1-(5-((4-isobutyl-2-methylpiperazin-1-yl)methyl)benzo[d]isoxazol-3-yl)dihydropyrimidine-2,4(1H,3H)-dione]
6 | 87 | 13 | 4 |  |  | CN1CCCC(Cc2ccc3onc(N4CCC(=O)NC4=O)c3c2)CC1 (stereo not drawn) [Example 53, 1-(5-((1-methylazepan-4-yl)methyl)benzo[d]isoxazol-3-yl)dihydropyrimidine-2,4(1H,3H)-dione]
7 | 83 | 17 | 93 |  |  | CS(=O)(=O)N1CCN(Cc2ccc3onc(N4CCC(=O)NC4=O)c3c2)CC1 [Example 83, 1-(5-((4-(methylsulfonyl)piperazin-1-yl)methyl)benzo[d]isoxazol-3-yl)dihydropyrimidine-2,4(1H,3H)-dione]
8 | 91 | 9 | 18 |  |  | O=C1CCN(c2noc3ccc(CC4CCN(Cc5cccc(F)c5)CC4)cc23)C(=O)N1 [Example 7, 1-(5-((1-(3-fluorobenzyl)piperidin-4-yl)methyl)benzo[d]isoxazol-3-yl)dihydropyrimidine-2,4(1H,3H)-dione]
9 | 81 | 19 | 98 |  |  | CCS(=O)(=O)N1CCN(Cc2ccc3onc(N4CCC(=O)NC4=O)c3c2)[C@H](C)C1 [Example 72, (R)-1-(5-((4-(ethylsulfonyl)-2-methylpiperazin-1-yl)methyl)benzo[d]isoxazol-3-yl)dihydropyrimidine-2,4(1H,3H)-dione]
10 | 83 | 17 | 110 |  |  | CC(C)S(=O)(=O)N1CCN(Cc2ccc3onc(N4CCC(=O)NC4=O)c3c2)[C@H](C)C1 [Example 73, (R)-1-(5-((4-(isopropylsulfonyl)-2-methylpiperazin-1-yl)methyl)benzo[d]isoxazol-3-yl)dihydropyrimidine-2,4(1H,3H)-dione]
11 | 90 | 10 | 44 |  |  | Cc1ccccc1CN1CCC(Cc2ccc3onc(N4CCC(=O)NC4=O)c3c2)CC1 [Example 12, 1-(5-((1-(2-methylbenzyl)piperidin-4-yl)methyl)benzo[d]isoxazol-3-yl)dihydropyrimidine-2,4(1H,3H)-dione]
12 | 91 | 9 | 4 |  |  | O=C1CCN(c2noc3ccc(CN4CCN(CC5CCOCC5)CC4)cc23)C(=O)N1 [Example 23, 1-(5-((4-((tetrahydro-2H-pyran-4-yl)methyl)piperazin-1-yl)methyl)benzo[d]isoxazol-3-yl)dihydropyrimidine-2,4(1H,3H)-dione]
13 | 80 | 20 | 260 |  |  | CC(C)[C@H]1CN(Cc2ccc3onc(N4CCC(=O)NC4=O)c3c2)CCN1C [Example 37, (S)-1-(5-((3-isopropyl-4-methylpiperazin-1-yl)methyl)benzo[d]isoxazol-3-yl)dihydropyrimidine-2,4(1H,3H)-dione]
14 |  |  | 134 | 83 | 17 | CS(=O)(=O)N1CC2CCC1CN2Cc1ccc2onc(N3CCC(=O)NC3=O)c2c1 (single isomer, unassigned) [Example 126, 1-(5-((5-(methylsulfonyl)-2,5-diazabicyclo[2.2.2]octan-2-yl)methyl)benzo[d]isoxazol-3-yl)dihydropyrimidine-2,4(1H,3H)-dione]
15 | 78 | 22 | 940 |  |  | O=C1CCN(c2noc3ccc(CC4CCCNC4)cc23)C(=O)N1 (stereo not drawn) [Example 43, 1-(5-(piperidin-3-ylmethyl)benzo[d]isoxazol-3-yl)dihydropyrimidine-2,4(1H,3H)-dione]
16 | 90 | 10 | 14 |  |  | CC(C)S(=O)(=O)N1CCC(Cc2ccc3onc(N4CCC(=O)NC4=O)c3c2)CC1 [Example 14, 1-(5-((1-(isopropylsulfonyl)piperidin-4-yl)methyl)benzo[d]isoxazol-3-yl)dihydropyrimidine-2,4(1H,3H)-dione]
17 | 77 | 23 | 475 |  |  | O=C1CCN(c2noc3ccc(CC4CCCN(CC5CCCCC5)C4)cc23)C(=O)N1 (stereo not drawn) [Example 44, 1-(5-((1-(cyclohexylmethyl)piperidin-3-yl)methyl)benzo[d]isoxazol-3-yl)dihydropyrimidine-2,4(1H,3H)-dione]
18 | 77 | 23 | 1160 |  |  | O=C1CCN(c2noc3ccc(CC4CCNC4)cc23)C(=O)N1 (stereo not drawn) [Example 48, 1-(5-(pyrrolidin-3-ylmethyl)benzo[d]isoxazol-3-yl)dihydropyrimidine-2,4(1H,3H)-dione]
19 | 78 | 22 | 193 |  |  | O=C1CCN(c2noc3ccc(CN4CCN5C(=O)COC[C@H]5C4)cc23)C(=O)N1 [Example 116, (R)-1-(5-((4-oxohexahydropyrazino[2,1-c][1,4]oxazin-8(1H)-yl)methyl)benzo[d]isoxazol-3-yl)dihydropyrimidine-2,4(1H,3H)-dione]
20 | 85 | 15 | 8 |  |  | CC[C@@H]1CN(CC(C)C)CCN1Cc1ccc2onc(N3CCC(=O)NC3=O)c2c1 [Example 88, (R)-1-(5-((2-ethyl-4-isobutylpiperazin-1-yl)methyl)benzo[d]isoxazol-3-yl)dihydropyrimidine-2,4(1H,3H)-dione]
21 | 86 | 14 | 11 |  |  | C[C@H]1CN(Cc2ccc3onc(N4CCC(=O)NC4=O)c3c2)CCN1CC1COC1 [Example 86, (S)-1-(5-((3-methyl-4-(oxetan-3-ylmethyl)piperazin-1-yl)methyl)benzo[d]isoxazol-3-yl)dihydropyrimidine-2,4(1H,3H)-dione]
22 | 76 | 24 | 364 |  |  | CN1C[C@@H]2C[C@H]1CN2Cc1ccc2onc(N3CCC(=O)NC3=O)c2c1 [Example 94]
23 | 82 | 18 | 188 |  |  | O=C1CCN(c2noc3ccc(CN4C[C@@H]5C[C@H]4CN5CC4CCOCC4)cc23)C(=O)N1 [Example 95, 1-(5-(((1S,4S)-5-((tetrahydro-2H-pyran-4-yl)methyl)-2,5-diazabicyclo[2.2.1]heptan-2-yl)methyl)benzo[d]isoxazol-3-yl)dihydropyrimidine-2,4(1H,3H)-dione]
24 | 82 | 18 | 1010 |  |  | CC(C)(C)OC(=O)N1CCCC(Cc2ccc3onc(N4CCC(=O)NC4=O)c3c2)C1 (stereo not drawn) [Example 42, tert-butyl 3-((3-(2,4-dioxotetrahydropyrimidin-1 (2H)-yl)benzo[d]isoxazol-5-yl)methyl)piperidine-1-carboxylate]
25 | 88 | 12 | 32 |  |  | CC(C)CN1CCN(Cc2ccc3onc(N4CCC(=O)NC4=O)c3c2)[C@H](C)C1 [Example 33, (R)-1-(5-((4-isobutyl-2-methylpiperazin-1-yl)methyl)benzo[d]isoxazol-3-yl)dihydropyrimidine-2,4(1H,3H)-dione]
26 | 66 | 34 | 256 |  |  | CC(C)CN1CCN(Cc2ccc3onc(N4CCC(=O)NC4=O)c3c2)CC1=O [Example 113, 1-(5-((4-isobutyl-3-oxopiperazin-1-yl)methyl)benzo[d]isoxazol-3-yl)dihydropyrimidine-2,4(1H,3H)-dione]
